Where “and” joins values, the source holds several entries; their conditions need not be identical. Equal values may be shown once.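 96-well plates; 48 h exposure; 5 concentrations. Endpoints by linear interpolation between flanking doses. Not reached: highest tested concentration assigned. At the GI50, growth is halved. The concentration for full growth arrest is given as TGI.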 Some results are limits rather than exact numbers.

This note sets out measurements from PubChem BioAssay (NCI).

Test systems include UO-31 renal; SN12C renal; NCI-H522 lung; K-562 leukemia; KM12 colon; HCC-2998 colon; EKVX NSCLC; NCI/ADR-RES ovarian; A549 NSCLC; SNB-75 CNS.
Holding throughout (test): inhibition of tumour cell growth, NCI panel, 48 h

Consider `CCCCCCCCCCCCCCCCCC1=NCCN1CS(=O)(=O)O`, for which the GI50 in the experiment with UO-31 renal is 6.28 µM; in the experiment with SN12C renal, 12.8 µM; with NCI-H522 lung, 24.5 µM; with K-562 leukemia it was 3.93 µM; in the experiment with KM12 colon, 2.78 µM; in the experiment with HCC-2998 colon it was 17 µM. The GI50 with EKVX NSCLC was 11.4 µM; in the experiment on NCI/ADR-RES ovarian, 16.1 µM; with A549 NSCLC, 12.5 µM; with SNB-75 CNS, 17.2 µM. Also, the TGI in the experiment with UO-31 renal is 23 µM; in the experiment on SN12C renal, 28.9 µM; in the experiment with NCI-H522 lung, 54 µM; in the experiment with K-562 leukemia, above 100 µM; in the experiment with KM12 colon, 8.49 µM; with HCC-2998 colon, 34.4 µM. Further, the TGI was found to be 25 µM in the experiment with EKVX NSCLC, 35.3 µM with NCI/ADR-RES ovarian, 31.2 µM in the experiment on A549 NSCLC and 44.9 µM with SNB-75 CNS.
On to `COc1ccc(NC(=O)n2nc(N)c3ccccc32)cc1OC`, for which the GI50 with UO-31 renal is 28.5 µM; with SN12C renal, above 100 µM; with NCI-H522 lung it was 34.9 µM; in the experiment with K-562 leukemia it was 41.2 µM; in the experiment with KM12 colon it was 67.9 µM; in the experiment on HCC-2998 colon, 61.1 µM. Also, the GI50 in the experiment on EKVX NSCLC was 54.1 µM; in the experiment with NCI/ADR-RES ovarian it was 37.6 µM; with A549 NSCLC it was 45.8 µM; in the experiment with SNB-75 CNS, 30.6 µM. Further, the TGI with UO-31 renal, in the experiment on SN12C renal, with NCI-H522 lung, in the experiment with K-562 leukemia, in the experiment with KM12 colon and in the experiment with HCC-2998 colon was above 100 µM in each case. For the same compound, the TGI in the experiment on EKVX NSCLC, in the experiment with NCI/ADR-RES ovarian, with A549 NSCLC and in the experiment on SNB-75 CNS was above 100 µM in each case.
For the compound `CC(=O)OC1CC(n2cc(F)c(=O)[nH]c2=O)OC1CO` (centres undefined), the TGI with UO-31 renal is above 92.6 µM; with SN12C renal, above 100 µM; in the experiment with NCI-H522 lung, 23.9 µM; in the experiment with K-562 leukemia, above 100 µM; with KM12 colon, above 100 µM; with HCC-2998 colon, 8.33 µM. Further, the TGI in the experiment on EKVX NSCLC is above 100 µM; with NCI/ADR-RES ovarian, above 100 µM; in the experiment on A549 NSCLC, above 90.8 µM; in the experiment with SNB-75 CNS, above 100 µM.
As to `NS(=O)(=O)c1cc2c(cc1Cl)NC(Cc1ccccc1)NS2(=O)=O` (centres undefined), the TGI in the experiment with UO-31 renal, in the experiment on SN12C renal, in the experiment with NCI-H522 lung, in the experiment with K-562 leukemia, in the experiment with KM12 colon and in the experiment on HCC-2998 colon was above 100 µM throughout. For the same compound, the TGI in the experiment with EKVX NSCLC, in the experiment with NCI/ADR-RES ovarian, in the experiment on A549 NSCLC and in the experiment on SNB-75 CNS was above 100 µM each time.
`CC1/C=C/C=C/C=C/C=C/C=C/C=C/C=C/C(O[C@@H]2O[C@H](C)[C@H](O)[C@@H](O)[C@@H]2N)CC(O)C(C(=O)O)C(O)CC(=O)CC(O)CC(O)CC(O)CC(=O)CCCC(=O)CC(=O)OC1C(C)CC(C)C(O)CC(=O)c1ccc(N)cc1` (some centres undefined): the GI50 was 0.0456 µM and 0.159 µM with UO-31 renal; 0.0586 µM and 0.174 µM in the experiment on SN12C renal; 0.0512 µM and 0.161 µM in the experiment on NCI-H522 lung; 0.0716 µM in the experiment on K-562 leukemia; 0.0694 µM and 0.574 µM in the experiment on KM12 colon; 0.058 µM and 0.302 µM in the experiment on HCC-2998 colon. Also, the GI50 with EKVX NSCLC is 0.0644 µM and 0.221 µM; with NCI/ADR-RES ovarian, 0.0626 µM and 0.209 µM; in the experiment on A549 NSCLC it was 0.0561 µM and 0.169 µM; in the experiment with SNB-75 CNS it was 0.0596 µM and 0.242 µM. Also, the TGI is 0.0882 µM and 0.328 µM with UO-31 renal; 0.114 µM and 0.317 µM in the experiment on SN12C renal; 0.0986 µM and 0.314 µM with NCI-H522 lung; 0.175 µM in the experiment with K-562 leukemia; 0.104 µM and 1.03 µM with HCC-2998 colon; 0.126 µM and 0.484 µM in the experiment with EKVX NSCLC. Besides, the TGI is 0.125 µM and 0.474 µM in the experiment with NCI/ADR-RES ovarian; 0.101 µM and 0.305 µM in the experiment on A549 NSCLC; 0.12 µM and 0.787 µM in the experiment with SNB-75 CNS.
For the compound `C=C(C)[C@@H]1CC[C@]2(C)[C@H](C(=O)C=C3[C@@H]4C[C@](C)(C(=O)N5CCN(C)CC5)CC[C@]4(C)CC[C@]32C)[C@@]1(C)CCC#N`, the GI50 in the experiment with UO-31 renal is 5.37 µM; in the experiment on SN12C renal, 6.37 µM; in the experiment with NCI-H522 lung it was 7.21 µM; in the experiment on K-562 leukemia, 2.75 µM; in the experiment with KM12 colon, 6.43 µM; in the experiment on HCC-2998 colon, 6.72 µM. In addition, the GI50 in the experiment on EKVX NSCLC was 7.24 µM; with NCI/ADR-RES ovarian, 6.83 µM; in the experiment with A549 NSCLC, 7.12 µM; in the experiment with SNB-75 CNS it was 7.52 µM. Further, the TGI in the experiment with UO-31 renal amounted to 11.3 µM; in the experiment on SN12C renal it was 12.9 µM; in the experiment with NCI-H522 lung, 15.3 µM; with K-562 leukemia it was 9.55 µM; with KM12 colon, 13.4 µM; in the experiment with HCC-2998 colon, 13.6 µM. The TGI in the experiment on EKVX NSCLC amounted to 14 µM; in the experiment on NCI/ADR-RES ovarian it was 13.9 µM; in the experiment on A549 NSCLC it was 14.5 µM; in the experiment with SNB-75 CNS it was 15.8 µM.
